Experimental data from patent US20130052280A1, “USE OF THEBROMINE FOR LOWERING CENTRAL BLOOD PRESSURE” (priority 2010, published 2013).

What was measured:
[1] = tested on: untreated prehypertensive males and females; experiment: Central blood pressure by applanation tonometry at the radial artery (pulse wave analysis), randomised controlled cross-over study; assay type: in vivo, humans
Protocol: In a randomised controlled cross-over study with 42 untreated prehypertensive males and females the effect of cocoa-containing drinks either high in polyphenols or high in polyphenols and theobromine was assessed on blood pressure (BP). The subjects consumed for 3 weeks daily (in the morning before breakfast) 200 ml acidified dairy drink as in table 1, with added to that 1) none (control drink), 2) 3.65 g cocoa powder (Acticoa, Barry-Callebaut) containing 500 mg polyphenols and 79 mg theobromine (amount in product specification Acticoa) and 3) 5 g cocoa powder containing 500 mg polyphenols and 79 mg theobromine plus added thereto 918 mg pure theobromine (Fagron, Ph. […] Peripheral BP was measured by 24-hours ambulatory BP at the brachial artery, while central blood pressure was measured by applanation tonometry at the radial artery, using a transfer function to estimate central pulse wave forms, systolic and diastolic BP (SBP and DBP, respectively), pulse pressure (SBP-DBP) and augmentation index. […] Augmentation index (AIx), defined as the ratio of augmentation to central pulse pressure, is expressed as a percentage: AIx=(ΔP/PP)×100, where P is pressure and PP is pulse pressure. […] Pulse pressure amplification (PPA) is expressed as the ratio of […]: PPA=PPP/CPP. […]

[2] = tested on: untreated prehypertensive males and females; experiment: 24-hour ambulatory blood pressure and heart rate (peripheral BP at the brachial artery), randomised controlled cross-over study; assay type: in vivo, humans; conditions: for some time after ingestion
Protocol: In a randomised controlled cross-over study with 42 untreated prehypertensive males and females the effect of cocoa-containing drinks either high in polyphenols or high in polyphenols and theobromine was assessed on blood pressure (BP).
The subjects consumed for 3 weeks daily (in the morning before breakfast) 200 ml acidified dairy drink as in table 1, with added to that 1) none (control drink), 2) 3.65 g cocoa powder (Acticoa, Barry-Callebaut) containing 500 mg polyphenols and 79 mg theobromine (amount in product specification Acticoa) and 3) 5 g cocoa powder containing 500 mg polyphenols and 79 mg theobromine plus added thereto 918 mg pure theobromine (Fagron, Ph. […]
Peripheral BP was measured by 24-hours ambulatory BP at the brachial artery, while central blood pressure was measured by applanation tonometry at the radial artery, using a transfer function to estimate central pulse wave forms, systolic and diastolic BP (SBP and DBP, respectively), pulse pressure (SBP-DBP) and augmentation index. […]
An automatic ambulatory BP monitor (Spacelabs 90207, Spacelabs In., Redmond, Wash., USA) was placed on the non-dominant arm in all subjects. Systolic and diastolic BP and heart rate (HR) were recorded over at least 24 h. […]
Baseline data was expressed as mean plus standard deviation for variables with a parametric distribution and median plus range for variables with a skewed distribution. […]

Cn1cnc2c1c(=O)[nH]c(=O)n2C [theobromine, 3,7-dimethylxanthine]
reduction of central blood pressure compared to when theobromine is not ingested ([1]; ingestion in an effective amount): at least 2 mmHg
reduction of central BP ([1]; single daily dose of 1000 mg theobromine, p=0.003): 3.3%
heart rate after ingestion of the effective amount (in words) [2]: elevated
peripheral BP after ingestion of the effective amount (in words) [2]: elevated
